{"source": "patent US20040235857A1", "about": "“Crystalline therapeutic agent” (Pfizer Inc, priority 2003, published 2004)", "key": {"[1]": {"test": "Dynamic vapour sorption (DVS) moisture sorption", "type": "physicochemical", "settings": "DVS isotherm, 30° C.", "experimental": "The moisture sorption of the hydrated forms of sildenafil hemi-citrate was measured using a Surface Measurement Systems Ltd. Dynamic Vapour Sorption (DVS) Automated Water Sorption Analyser. A sample of the higher hydrate was initially equilibrated at about 45% RH and then analysed from 0 to 90% RH in relative humidity steps of 10% (exposure time of 6 hours per step). A second analysis was carried out from 35 to 65% RH in 5% RH steps to gain more detail in this humidity range (exposure time variable, weight stability of 0.0003%/minute gained for each steps). The temperature was maintained at 30° C. throughout the equilibration and analysis stages.\nSildenafil hemi-citrate is a hygroscopic material. The isotherm is represented in FIG. 5. At humidities greater than 55% RH the higher hydrate is present and from 30 to 40% RH the lower hydrate is present and at 0% RH the dehydrated form is present. Hysteresis occurs between the sorption and desorption isotherms in the 10 to 30 and 40 to 55% RH regions. This is classically seen for hydrates where kinetics associated with hydration and dehydration result in the events occurring at different humidities. There are slow kinetics associated with the rate of sorption (see FIG. 6) at 50% RH (illustrated by an equilibration time of 21 hours)."}, "[2]": {"test": "TGA of the higher hydrated form of sildenafil hemi-citrate", "type": "physicochemical", "settings": "temperatures in excess of 150° C.; attributed to degradation of the citrate ion", "experimental": "A TGA trace showing the relative % weight loss versus temperature for the solid form of the present invention is illustrated in FIG. 7. This trace was obtained using a Perkin-Elmer Pyris 1 TGA instrument. The sample, ideally about 5 to about 10 mg, was heated at 20° C./minute from ambient to about 300° C. with a purge gas of nitrogen."}}, "data": [{"smiles": "CCCc1nn(C)c2c(=O)[nH]c(-c3cc(S(=O)(=O)N4CCN(C)CC4)ccc3OCC)nc12.CCCc1nn(C)c2c(=O)[nH]c(-c3cc(S(=O)(=O)N4CCN(C)CC4)ccc3OCC)nc12.O=C(O)CC(O)(CC(=O)O)C(=O)O", "note": "[dehydrated hydrate]", "values": [{"measurement": "relative humidity at which the form is present", "setting": "[1]", "value": 0, "unit": "% RH"}, {"measurement": "second weight loss", "setting": "[2]", "value": "about 12%"}]}]}
